Data taken from US12600709B2, “Nonpeptide somatostatin type 5 receptor agonists and uses thereof” (Crinetics Pharmaceuticals, Inc., priority 2019, dated 2026).
Read-outs that look alike come from different tables or passages of the source.

Assays:
[1] = biological target: T1, human somatostatin receptor subtype 5 (Homo sapiens, UniProt P35346); assay: cAMP assay for SST5R (inhibition of cAMP in CHO-K1 cells); format: cell-based; conditions: for EC50: inhibition of cAMP via human SST5 receptor, read-out: SST5 potency; for Fold selectivity for SST5 vs SST2: class symbols, SST5 receptor over SST2 receptor
T1 construct: expressed in transfected cells
T1 sequence (P35346 whole entry): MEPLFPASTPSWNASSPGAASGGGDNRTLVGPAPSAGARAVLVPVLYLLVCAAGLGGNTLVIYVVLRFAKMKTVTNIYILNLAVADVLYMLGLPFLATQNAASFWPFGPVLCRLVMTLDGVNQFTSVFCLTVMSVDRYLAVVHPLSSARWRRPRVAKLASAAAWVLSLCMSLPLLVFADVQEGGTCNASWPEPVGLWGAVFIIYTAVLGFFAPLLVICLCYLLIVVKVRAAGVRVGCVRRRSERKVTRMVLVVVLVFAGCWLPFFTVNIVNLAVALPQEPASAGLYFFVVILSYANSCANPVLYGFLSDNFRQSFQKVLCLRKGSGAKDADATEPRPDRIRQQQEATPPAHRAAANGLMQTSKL
Summary of the method: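 CHO-K1 cells stably expressing human SSTR5 were treated 20 min at 37 °C with compounds plus 1.6 μM NKH477 in HBSS, 0.5 mM HEPES pH 7.4, 0.1% BSA, 0.2 mM IBMX. Lysate cAMP measured by HTRF against a standard curve; EC50 from cAMP-versus-concentration plots.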

[2] = biological target: T2, human somatostatin receptor subtype 2 (Homo sapiens, UniProt P30874); assay: cAMP assay for SST2R (inhibition of cAMP in CHO-K1 cells); format: cell-based; conditions: Table B; inhibition of cAMP via human SST2 receptor; read-out: SST2 potency
T2 construct: expressed in transfected cells
T2 sequence (P30874 whole entry): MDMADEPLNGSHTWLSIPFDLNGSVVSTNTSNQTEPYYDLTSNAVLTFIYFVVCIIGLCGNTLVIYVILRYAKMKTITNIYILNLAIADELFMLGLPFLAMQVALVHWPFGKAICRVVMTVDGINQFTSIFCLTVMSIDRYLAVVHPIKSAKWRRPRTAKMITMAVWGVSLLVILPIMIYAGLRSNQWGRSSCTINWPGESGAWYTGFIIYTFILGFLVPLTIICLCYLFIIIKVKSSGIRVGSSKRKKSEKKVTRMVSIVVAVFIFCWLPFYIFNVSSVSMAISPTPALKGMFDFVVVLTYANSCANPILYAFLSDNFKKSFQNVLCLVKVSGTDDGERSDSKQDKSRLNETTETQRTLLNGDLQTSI
Summary of the method: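 CHO-K1 cells stably expressing human SSTR2, plated 4 days prior, treated 20 min at 37° C with 1.6 μM NKH477 plus compound dilutions in HBSS/HEPES pH 7.4/0.1% BSA/0.2 mM IBMX. Lysate cAMP measured by HTRF against standard curve; EC50 from concentration-response.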

Structure (SMILES) | EC50 ([1]; Table A) [nM] | Fold selectivity for SST5 vs SST2 ([1]; Table B) | EC50 ([1]; Table B) [nM] | EC50 [2] [nM]
Cc1cccc2[nH]c(-c3cncc(C(=O)N4CCC(C5CC5)C4)c3N3CC[C@](C)(N)C3)nc12 (stereo partly drawn) [2-42, (3S)-1-[3-(3-cyclopropylpyrrolidine-1-carbonyl)-5-(4-methyl-1H-1,3-benzodiazol-2-yl)pyridin-4-yl]-3-methylpyrrolidin-3-amine] | < 10 | ++ (++=100 to 499) | < 10 | 100 to 1000
CC(NC(=O)c1cnc(C#N)c(-c2cc(F)cc(F)c2)c1N1CC[C@](C)(N)C1)c1ncccn1 (stereo partly drawn) [1-126, 4-[(3S)-3-amino-3-methylpyrrolidin-1-yl]-6-cyano-5-(3,5-difluorophenyl)-N-[1-(pyrimidin-2-yl)ethyl]pyridine-3-carboxamide] | < 10 | +++ (+++=>500) | < 10 | > 1000
Cc1ncc(C(=O)NC23CC(F)(C2)C3)c(N2CC[C@H](N)C2)c1-c1cc(F)cc(Cl)c1 [1-278, 4-[(3S)-3-aminopyrrolidin-1-yl]-5-(3-chloro-5-fluorophenyl)-N-{3-fluorobicyclo[1.1.1]pentan-1-yl}-6-methylpyridine-3-carboxamide] | < 10 | +++ (+++=>500) | < 10 | > 1000
COc1ncc(C(=O)N[C@@H](C)C(F)(F)F)c(N2CC[C@](C)(N)C2)c1-c1ccc2nonc2c1 [1-186, 4-[(3S)-3-amino-3-methylpyrrolidin-1-yl]-5-(2,1,3-benzoxadiazol-5-yl)-6-methoxy-N-[(2S)-1,1,1-trifluoropropan-2-yl]pyridine-3-carboxamide] | < 10 | +++ (+++=>500) | < 10 | 100 to 1000
CCC(CC)NC(=O)c1cnc(C#N)c(-c2cc(F)cc(F)c2)c1N1CC[C@H](N)C1 [1-72, 4-[(3S)-3-aminopyrrolidin-1-yl]-6-cyano-5-(3,5-difluorophenyl)-N-(pentan-3-yl)pyridine-3-carboxamide] | < 10 | +++ (+++=>500) | < 10 | 100 to 1000
COc1ncc(C(=O)NCc2ccon2)c(N2CC[C@](C)(N)C2)c1-c1cc(F)cc(OC(F)F)c1 [1-239, 4-[(3S)-3-amino-3-methylpyrrolidin-1-yl]-5-[3-(difluoromethoxy)-5-fluorophenyl]-6-methoxy-N-[(1,2-oxazol-3-yl)methyl]pyridine-3-carboxamide] | < 10 | +++ (+++=>500) | < 10 | > 1000
CC(C)NC(=O)c1cnc(C#N)c(-c2cc(F)cc(F)c2)c1N1CC[C@](C)(N)C1 [1-91, 4-[(3S)-3-amino-3-methylpyrrolidin-1-yl]-6-cyano-5-(3,5-difluorophenyl)-N-(propan-2-yl)pyridine-3-carboxamide] | < 10 | +++ (+++=>500) | < 10 | 100 to 1000
C[C@]1(N)CCN(c2c(C(=O)NC3CCC3)cnc(C#N)c2-c2cc(F)cc(F)c2)C1 [1-87, 4-[(3S)-3-amino-3-methylpyrrolidin-1-yl]-6-cyano-N-cyclobutyl-5-(3,5-difluorophenyl)pyridine-3-carboxamide] | < 10 | +++ (+++=>500) | < 10 | 100 to 1000
COc1cc(-c2c(C#N)ncc(C(=O)N[C@@H](C)C(F)(F)F)c2N2CC[C@](C)(N)C2)ccn1 [1-170, 4-[(3S)-3-amino-3-methylpyrrolidin-1-yl]-2-cyano-2′-methoxy-N-[(2S)-1,1,1-trifluoropropan-2-yl]-[3,4′-bipyridine]-5-carboxamide] | < 10 | +++ (+++=>500) | < 10 | 100 to 1000
C[C@]1(N)CCN(c2c(C(=O)NC3CC(F)(F)C3)cncc2-c2cc(F)cc(Cl)c2)C1 [1-35, 4-[(3S)-3-amino-3-methylpyrrolidin-1-yl]-5-(3-chloro-5-fluorophenyl)-N-(3,3-difluorocyclobutyl)pyridine-3-carboxamide] | < 10 | ++ (++=100 to 499) | < 10 | 100 to 1000
Cc1cc(C)cc(NC(=O)c2cncc(-c3ccnc(C)c3)c2N2CC[C@](C)(N)C2)c1 [1-6, 4-[(3S)-3-amino-3-methylpyrrolidin-1-yl]-N-(3,5-dimethylphenyl)-2′-methyl-[3,4′-bipyridine]-5-carboxamide] | < 10 | ++ (++=100 to 499) | < 10 | 10 to 100
Cc1ncc(C(=O)N[C@@H](C)C2CC2)c(N2CC[C@](C)(N)C2)c1-c1ccc(F)c(F)c1 [1-288, 4-[(3S)-3-amino-3-methylpyrrolidin-1-yl]-N-[(1S)-1-cyclopropylethyl]-5-(3,4-difluorophenyl)-6-methylpyridine-3-carboxamide] | < 10 | +++ (+++=>500) | < 10 | 100 to 1000
C[C@]1(N)CCN(c2c(C(=O)NC3CCC(F)(F)CC3)cncc2-c2cc(F)cc(F)c2)C1 [1-16, 4-[(3S)-3-amino-3-methylpyrrolidin-1-yl]-N-(4,4-difluorocyclohexyl)-5-(3,5-difluorophenyl)pyridine-3-carboxamide] | < 10 | +++ (+++=>500) | < 10 | 100 to 1000
Cc1ncc(C(=O)N[C@@H](C)C2CC2)c(N2CC[C@](C)(N)C2)c1-c1cncc(Cl)c1 [1-158, 4-[(3S)-3-amino-3-methylpyrrolidin-1-yl]-5′-chloro-N-[(1S)-1-cyclopropylethyl]-2-methyl-[3,3′-bipyridine]-5-carboxamide] | < 10 | +++ (+++=>500) | < 10 | > 1000
C[C@]1(N)CCN(c2c(C(=O)NC3CCC(F)(F)CC3)cncc2-c2cc(F)c(F)c(F)c2)C1 [1-20, 4-[(3S)-3-amino-3-methylpyrrolidin-1-yl]-N-(4,4-difluorocyclohexyl)-5-(3,4,5-trifluorophenyl)pyridine-3-carboxamide] | < 10 | +++ (+++=>500) | < 10 | 100 to 1000
CCC(C)CNC(=O)c1cncc(-c2cc(F)cc(F)c2)c1N1CC[C@](C)(N)C1 (stereo partly drawn) [1-57, 4-[(3S)-3-amino-3-methylpyrrolidin-1-yl]-5-(3,5-difluorophenyl)-N-(2-methylbutyl)pyridine-3-carboxamide] | < 10 | ++ (++=100 to 499) | < 10 | 100 to 1000
C[C@]1(N)CCN(c2c(C(=O)NC34CC(F)(C3)C4)cnc(C(F)(F)F)c2-c2cc(F)cc(F)c2)C1 [1-217, 4-[(3S)-3-amino-3-methylpyrrolidin-1-yl]-5-(3,5-difluorophenyl)-N-{3-fluorobicyclo[1.1.1]pentan-1-yl}-6-(trifluoromethyl)pyridine-3-carboxamide] | < 10 | +++ (+++=>500) | < 10 | 100 to 1000
N#Cc1ncc(C(=O)NCCCc2ccccc2)c(N2CC[C@H](N)C2)c1-c1cc(F)cc(F)c1 [1-110, 4-[(3S)-3-aminopyrrolidin-1-yl]-6-cyano-5-(3,5-difluorophenyl)-N-(3-phenylpropyl)pyridine-3-carboxamide] | < 10 | +++ (+++=>500) | < 10 | > 1000
N#Cc1ncc(C(=O)NC2CCC(F)(F)CC2)c(N2CC[C@H](N)C2)c1-c1cc(F)cc(F)c1 [1-67, 4-[(3S)-3-aminopyrrolidin-1-yl]-6-cyano-N-(4,4-difluorocyclohexyl)-5-(3,5-difluorophenyl)pyridine-3-carboxamide] | < 10 | +++ (+++=>500) | < 10 | > 1000
COc1ncc(C(=O)N[C@@H](C)C(F)(F)F)c(N2CC[C@](C)(N)C2)c1-c1ccc2ncn(C)c2c1 [1-182, 4-[(3S)-3-amino-3-methylpyrrolidin-1-yl]-6-methoxy-5-(1-methyl-1H-1,3-benzodiazol-6-yl)-N-[(2S)-1,1,1-trifluoropropan-2-yl]pyridine-3-carboxamide] | < 10 | +++ (+++=>500) | < 10 | > 1000
C[C@H](NC(=O)c1cnc(C#N)c(-c2cccc(OC(F)F)c2)c1N1CC[C@](C)(N)C1)C(F)(F)F [1-168, 4-[(3S)-3-amino-3-methylpyrrolidin-1-yl]-6-cyano-5-[3-(difluoromethoxy)phenyl]-N-[(2S)-1,1,1-trifluoropropan-2-yl]pyridine-3-carboxamide] | < 10 | +++ (+++=>500) | < 10 | 100 to 1000
Cc1ncc(C(=O)NC2CCCC2)c(N2CC[C@](C)(N)C2)c1-c1ccnc(C(F)(F)F)c1 [1-258, 4-[(3S)-3-amino-3-methylpyrrolidin-1-yl]-N-cyclopentyl-2-methyl-2′-(trifluoromethyl)-[3,4′-bipyridine]-5-carboxamide] | < 10 | +++ (+++=>500) | < 10 | > 1000
COc1ncc(C(=O)N[C@@H](C)C2CC2)c(N2CC[C@](C)(N)C2)c1-c1ccc(F)c(F)c1 [1-262, 4-[(3S)-3-amino-3-methylpyrrolidin-1-yl]-N-[(1S)-1-cyclopropylethyl]-5-(3,4-difluorophenyl)-6-methoxypyridine-3-carboxamide] | < 10 | +++ (+++=>500) | < 10 | 100 to 1000
